Results from patent US10391150B2, “Treatments for migraine and related disorders” (The University of Chicago, priority 2011, dated 2019).
“Also recorded” adds a separate entry of the source. Like-named read-outs stand apart in the source and are kept apart here.

B1: Interferon-gamma (protein, listed as Homo sapiens)
chain: MKYTSYILAFQLCIVLGSLGCYCQDPYVKEAENLKKYFNAGHSDVADNGTLFLGILKNWKEESDRKIMQSQIVSFYFKLFKNFKDDQSIQKSVETIKEDMNVKFFNSNKKKRDDFEKLTNYSVTDLNVQRKAIHELIQVMAELSPAAKTGKRKRSQMLFRGRRASQ

Columns and labels:
Assay type in all cases: cell-based, rat
[1] = tested on: CA3 pyramidal neuron spontaneous activity; assay: Spontaneous CA3 pyramidal neuron spiking / bursting in slice cultures
Method: FIGS. 12a-12e IGF-1 increased spontaneous neuronal spiking activity. (FIG. 12a) Exemplary recording of unstimulated control CA3 pyramidal layer spontaneous electrophysiological activity. (FIG. 12b) Exemplary recording of 3-day IGF-1-exposed CA3 pyramidal layer spontaneous electrophysiological activity. […] Seven day treatments consisted of IGF-1 exposure for only 12 hours daily. Comparisons between groups made via ANOVA plus Holm-Sidak post hoc testing.

[2] = tested on: CA3 area evoked excitability; parameters: key to evoked excitability response rating: a normal field potential (FP; left) was rated “1”; a FP that included stimulus-related bursting activity (center) was rated “2”; a stimulus that resulted in spreading depression (right) was rated is a “3”; settings: for evoked excitability versus control: H2O2 exposure
Method: FIGS. 11a-11g IGF-1 decreased CA3 oxidative stress (OS) and its related hyperexcitability. […] Relative evoked excitability was determined as a sum of responses seen (e.g., responses of “2” and a “3” yielded an overall excitability score of five). […] (FIGS. 11d-e) Exemplary images of control (FIG. 11d) slice culture OS compared to increased slice OS induced by exposure to menadione (FIG. 11e). Calibration bar, 200 Dotted boxes indicate CA3 areas of interest used for relative OS quantifications (f and g).

[3] = tested on: OS in microglia and astrocytes of hippocampal slice cultures; assay: Cell-specific OS from SD (CellROX, confocal microscopy); settings: IGF-1 100 ng/mL for three days
Source text: FIG. 13 Oxidative stress from SD preferentially rises in astrocytes and microglia, with the latter effect mitigated by IGF-1. The inventors have recently shown that spreading depression (SD), the most likely cause of migraine aura and perhaps migraine (Lauritzen and Kraig, 2005), occurs with increased oxidative stress (OS) and that OS, in turn, increases SD susceptibility (Grinberg et al., 2012). Reactive oxygen and nitrogen species that cause OS have both autocrine and paracrine signaling capacities that can affect SD susceptibility by altering excitability (Kishida and Klann, 2007). Accordingly, the inventors looked for the cellular origin of OS from SD. Here the inventors used hippocampal slice cultures (HSC) to probe for cell-specific changes in OS from SD. SD was induced trans-synaptically in rat HSCs using bipolar electrical stimuli at the dentate gyrus (Pusic et al., 2011). Six SDs were induced every 7-9 min over an hr, followed by 24 hr incubation in CellROX™, a fixable fluorogenic probe for measuring OS (Grinberg et al., 2012). HSCs were then fixed in 10% buffered formalin phosphate. Other fixatives (PLP, 4% paraformaldehyde) prevented detection of OS change. Tissue was then labeled for neurons (anti-NeuN), oligodendrocytes (anti-RIP), astrocytes (anti-GFAP), or for microglia (isolectin GS-IB4). […]

glutathione = assay: Slice culture glutathione by Thiol Tracker; settings: pulsed exposure to IFN-γ or exosomes from IFN-γ-pulsed slice cultures
Source text: FIGS. 17A-17B. Detection of an IFN-γ-induced rise in slice culture glutathione using Thiol Tracker™, a fluorescent indicator of glutathione. […] (FIG. 17B) Furthermore, this increase is significant (p<0.001; n≥5/group) and can be mimicked by exposure to exosomes isolated from slice cultures activated by pulsed-exposure to IFN-γ.
Since stimulated immune cells release exosomes that are capable of reducing OS in recipient cells, the inventors next tested whether IFN-γ stimulated slice cultures (and possibly their microglia) to release exosomes that mimicked the effects of IFN-γ. […] IFN-γ, when pulsed onto slice cultures for 12 hours triggers the release of nutritive exosomes that mimic the effect of pulsed exposure to IFN-γ (16, 17). Since pulsed-exposure to IFN-γ reduces OS and glutathione is a naturally occurring inhibitor of neutral sphingomyelinase, the inventors probed for an IFN-γ-induced rise in slice culture glutathione using Thiol Tracker™, a fluorescent indicator of glutathione (FIG. 17).

[4] = tested on: myelin basic protein (MBP); assay: Myelin basic protein (MBP) Western blot in hippocampal slice cultures
Method: FIGS. 14A-14C. Reduced myelin basic protein (MBP) from SD depends on IFN-γ/T-cell activation and sphingomylinase. […] Thus, confirming involvement of T cells.
FIGS. 15A-15C. Physiological and transient elevation [i.e., phasic (see FIG. 1)] of IFN-γ triggers completely opposite effects. Transient (i.e., 500 U/mL×12 hours; all groups n≥5) exposure of hippocampal slice cultures was nutritive when assessed seven days later.

Molecule | spontaneous CA3 pyramidal neuron bursting versus control ([1]; 3-day IGF-1 treatment) | spontaneous CA3 pyramidal neuron bursting versus control ([1]; 7-day IGF-1 treatment, 12 hours daily) | spontaneous CA3 pyramidal neuron spiking versus control ([1]; acute IGF-1 treatment) | evoked excitability versus control ([2]; without or with IGF-1 pretreatment for 3 days) | evoked excitability versus control ([2]; without or with acute IGF-1, 30 minutes after H2O2) | CA3 area evoked excitability ([2]; IGF-1 exposure alone) | evoked excitability response rating ([2]; IGF-1 exposure alone) | OS from SD in microglia [3] | astrocytic OS from SD [3] | slice culture / microglial glutathione (glutathione) | MBP levels ([4]; IFN-γ with co-administration of TNF-α (100 ng/mL)) | MBP levels ([4]; chronically applied IFN-γ 500 U/mL × 24 hours) | MBP versus baseline ([4]; transient (pulsed) IFN-γ 500 U/mL × 12 hours, assessed seven days later)
Insulin-like growth factor 1 [IGF-1] | increase in spontaneous CA3 pyramidal neuron bursting | increase in spontaneous CA3 pyramidal neuron bursting | increase in spontaneous CA3 pyramidal neuron spiking | abrogated; also recorded: non-significant difference from control | abrogated | no significant impact | 1 | decreased | unchanged |  |  |  | 
B1 |  |  |  |  |  |  |  |  |  | selectively increases microglial glutathione | further decline in MBP | reduce MBP levels | MBP rises above baseline; also recorded: increased above baseline
